This is an account of results in patent US11834696B2, “Antimicrobial susceptibility testing with large-volume light scattering imaging and deep learning video microscopy” (Arizona Board of Regents on behalf of Arizona State …, priority 2017, dated 2023).

Values after ≈ are worked out from the molar mass of the structure shown.

Assay [1] concerns E. coli. Nature of the assay: Deep learning video microscopy-based antimicrobial susceptibility testing (DLVM-AST). The format is cell-based, Escherichia coli (ATCC 43888). The following applies: for MIC: Escherichia coli.
The subject of assay [2] is E. coli. Put plainly: AST without DL (division feature only, cell counting from the videos). The following applies: for MIC: Escherichia coli. The format is cell-based, Escherichia coli (ATCC 43888). As to the method:
To further validate the DLVM-AST method, we counted the total number of bacteria cells (Ntotal) from the videos (as shown in FIG. 9), and plotted Ntotal (mean±std) vs. time for PMB at various concentrations (as shown in FIG. 11C).
Growth and preparation of E. coli. Frozen E. coli strains were thawed, and 50 μL of which were cultured in 5 mL of Luria-Bertani (LB) medium (Per liter: 10 g peptone 140, 5 g yeast extract, and 5 g sodium chloride) at 37° C. and 150 rpm for 16 hours. Saturated cultures in the volume of 20 μL were diluted into 5 mL of fresh LB medium, and growth continued at 37° C. with 150 rpm for 1 hour to attain a logarithmic phase of growth. Bacterial cells were collected by centrifugation at 450 g for 5 min and suspended in urine to a concentration of 2×10^7 cells/mL^36. This concentration was determined by measuring the extinction coefficients for E. coli from the Optical Density (OD600) reading taken with a spectrophototometer (NanoDrop™ 2000/2000c Spectrophotometers, Thermo Scientific). The calibration factor for bacterial cell cultures estimation was 8×10^8 cells/mL per OD600 unit. Before use, the bacteria-spiked urine samples were filtered using a 5 μm syringe filter (EMD Millipore) to remove large particles.
AST with video microscopy. The microfluidic chip was placed on an inverted microscope (Olympus IX-81) with a 40× phase contrast objective lens and imaged with a CCD camera (Pike-032B, Allied Vision Technologies, Newburyport, Mass.). A 200-μL bacterial suspension (2×10^7 cells/mL) was mixed with an equal volume of antibiotic solution for each antibiotic concentration or an equal volume of water as a control experiment. These mixed solutions were injected into different microfluidic channels simultaneously. After the microfluidic channels were fulfilled with these mixed solutions, two microfluidic valves of each detection channel were closed simultaneously to generate a stable microenvironment. Videos of the bacterial cells were recorded at 100 frames per second (fps) immediately (0 min) and after every 30 min. Each video lasted for 30 seconds. The raw images were batch-converted to 16-bit tiff format using a Matlab program and pre-processed to minimize background artifacts before being processed with the DL model. To include enough cells for reliable results, we integrated bacterial cells from three videos recorded from different experiments. Each experiment was repeated independently for three times.

The subject of assay [3] is E. coli. Put plainly: microbe, parasite or virus in culture. Type of assay: cell-based, Escherichia coli (ATCC 43888). The following applies: broth macrodilution, 37° C., triplicate; for MIC: Escherichia coli. As to the method:
AST with broth macrodilution (BMD) method. For comparison, AST was also performed by the BMD method (CLSI gold standard^35). The adjusted inoculum E. coli suspension is diluted in Cation-adjusted Mueller Hinton Broth (CAMHB, Sigma-Aldrich) and the concentration of E. coli cell cultures are adjusted to 1×10^6 cells/mL based on UV-Vis spectrophotometer (NanoDrop 2000, Thermo Fisher) readings at OD600. […] After inoculation, each tube contains approximately 5×10^5 cells/mL. […] This test was performed in triplicate.

Assay [4] deals with E. coli. Put plainly: Phenotypic features (motion, morphology) in recorded bacteria videos in presence of antibiotics. The format is cell-based, Escherichia coli. The settings on record: 3 hours. As to the method: Referring now simultaneously to FIG. 8A-FIG. 8C, phenotypic features in the recorded bacteria videos in the presence and absence of antibiotics are shown. […] Concentrations of PMB and aztreonam are 8 μg/mL and 0.5 μg/mL, respectively.
In principle, the raw bacterial videos could be used as inputs for a DL model, but the computational expense is impractical. In fact, few DL applications could use videos as input data directly even with high performance super-computers.^30-32 To overcome this difficulty, a method to compress the raw videos into static images without losing key phenotypic features was developed as described further below. This approach imitates human vision, which pre-processes raw images in the vision system to reduce complexity before passing them to the brain. The key phenotypic features in the video include cell division, motion, and morphology. […] Cell motion and morphology may also change when exposing the cell to antibiotics, thus serving as additional phenotypic features for AST. […]
AST with video microscopy. […] Videos of the bacterial cells were recorded at 100 frames per second (fps) immediately (0 min) and after every 30 min. […] To include enough cells for reliable results, we integrated bacterial cells from three videos recorded from different experiments. […]

The test system of assay [5] is E. coli O157 model strain. Nature of the assay: Susceptibility test with 40× optical microscope and imaging-processing algorithm tracking motion and growth. The format is cell-based. The following applies: @30 mins; concentrated bacterial samples. An excerpt:
The inventors here have tested the susceptibility of E. coli O157 model strain to polymysin B (PMB, an antibiotic) using a 40× optical microscope. The individual bacterial cells 12 were identified, and their motions and growth were tracked using an imaging-processing algorithm. Inhibition curves were derived from the tracking data as shown below with respect to FIG. 4B and FIG. 4C. […] However, the experiment used concentrated bacterial samples, because the microscope has a small viewing size.

[6] abbreviates: E. coli spiked in urine, triplicate.
Where [7] appears, read: division feature only, triplicate.

For `C[C@H]1[C@H](NC(=O)/C(=N\OC(C)(C)C(=O)O)c2csc(N)n2)C(=O)N1S(=O)(=O)O` [Aztreonam, aztreonam], the MIC in the assay with E. coli [1] (setting [6]), with E. coli [2] (setting [7]) and in the assay with E. coli [3] was 0.12 µg/mL (≈ 0.276 µM) in each case. In addition, the “effect on bacterial morphology” value in the assay on E. coli [4] (aztreonam 0.5 μg/mL) was “caused the bacterial cells to elongate”.

In turn, `O=C(O)c1cn(C2CC2)c2cc(N3CCNCC3)c(F)cc2c1=O` [Ciprofloxacin, ciprofloxacin] yielded an MIC against E. coli [2] (setting [7]) of 0.015 to 0.03 µg/mL (≈ 0.0453 to 0.0905 µM).

Regarding polymyxin B, in the assay with E. coli [1] (setting [6]), the “MIC, DLVM-AST” value was determined as 2 µg/mL. Also, in the assay with E. coli [1] (obtained 30 minutes after antibiotic treatment), the “MIC (concentration at which 90% of the bacterial cells are inhibited)” value amounted to 2 µg/mL. Further, the “MIC from Ntotal vs. antibiotic concentration” value with E. coli [2] (at 180 minutes, cell counting) is about 2 µg/mL. Besides, the “MIC, AST Without DL” value with E. coli [2] (setting [7]) fell in the range of 1 to 2 µg/mL. Moreover, the “MIC, BMD” value against E. coli [3] turned out to be 2 µg/mL. Moreover, the MIC in assay [5] was 2 µg/mL. In addition, in the assay on E. coli [4] (PMB 8 μg/mL), the “effect on bacterial motion” value is reported as “decreased bacterial motion”.

`[H]/N=C(/N)N[C@H]1[C@H](O)[C@@H](O)[C@H](O[C@@H]2O[C@@H](C)[C@](O)(C=O)[C@H]2O[C@@H]2O[C@@H](CO)[C@H](O)[C@@H](O)[C@@H]2NC)[C@@H](N/C(N)=N\[H])[C@@H]1O` [Streptomycin, streptomycin]: the MIC against E. coli [1] (setting [6]), with E. coli [2] (setting [7]) and against E. coli [3] was 4 µg/mL (≈ 6.88 µM) each time.

As to `CC1(C)S[C@@H]2[C@H](NC(=O)[C@H](N)c3ccccc3)C(=O)N2[C@H]1C(=O)O` [Ampicillin, ampicillin], the MIC in the assay with E. coli [1] (setting [6]), against E. coli [2] (setting [7]) and against E. coli [3] was 2 µg/mL (≈ 5.72 µM) each time.
